Holding throughout (format): cell-based
One test has as its system PBMCs. The test is described as follows: CTG (CellTiter-Glo) viability assay in PBMCs. As to conditions: LPS and nigericin stimulated. Here is the method:
(§1) Human peripheral blood mononuclear cells (PBMCs), consisting of lymphocytes (T, B and NK cells), monocytes and dendritic cells, were freshly isolated from human peripheral blood from healthy donors. Cells were obtained through an IRB approved donor program by iXCells Biotechnologies where all the donors were tested for bacterial and viral infections. Cells were purified from peripheral blood using ficoll gradient centrifugation.
(§2) Fresh or cryopreserved PMBCs were seeded in V-bottom 96-well plate at 0.5-1×10^5 cells per well and incubated overnight at 37° C. with 5% CO2 in RPMI 1640 medium with GlutaMAX supplement, 4.5 g/L D-glucose, 10% Fetal Bovine Serum (FBS), […] Sodium Pyruvate, 1% Penicillin/Streptomycin, 10 mM HEPES and 0.05 mM of β-mercaptoethanol. Freshly isolated or cryopreserved KCs cells were seeded in flat-bottom 96-well plates at 0.6-1.5×10^5 cells/well and incubated overnight at 37° C. 5% CO2 in RPMI 1640 Medium with GlutaMAX supplement, FBS, 1% Penicillin/Streptomycin and 10 mM HEPES. The following day, the cells were primed with 100 ng/mL of lipopolysaccharides (LPS; Sigma Aldrich) in FBS-free RPMI 1640 for 3 h. After the priming step, the media was removed and PBMCs were pre-incubated with serial concentrations of test compounds (0.00017-10 uM) or vehicle (DMSO) for 30 min in FBS-free media prior to addition of the NLRP3 activator. Cells were then stimulated with 10 uM Nigericin (Sigma Aldrich; InvivoGen) for 1.5 h. Plates were centrifuged at 1,500 rpm for 3 minutes to pellet cells and supernatant was transferred into new plates for subsequent experiments.
Viability of compound treated cells was measured using CellTiter-Glo® assay (Promega, Madison, Wis.) that measures the ATP content of cells which is proportional to the number of live cells within a well. This is a counter-screen to establish that the reduction of IL-1β levels in LPS and nigericin stimulated and compound treated cells is not due to cytotoxicity, but rather through the inhibition of the inflammasome pathway. Compounds inhibiting NRLP3 inflammasome activation ultimately increase the viability of LPS and nigericin stimulated cells by blocking NLRP3 mediated pyroptosis that would otherwise lead to cell lysis.

For a further test, the system named is TNFα. As to the kind of experiment: TNFα counter-screen in LPS and nigericin stimulated PBMCs. As to conditions: human PBMCs. As for the experimental part:
as §1, §2
(§3) For ELISA assays cells were seeded into 96-well plates. Post study, supernatants were removed and the levels of mature IL-1β, IL18 and TNFα (Quantikine ELISA, R&D systems) were measured in cell conditioned media by ELISA according to manufacturer's instructions.
TNFα levels of LPS and nigericin stimulated cells were measured by HTRF assay (Cisbio, Bedford, MA). […] Measuring TNFalpha production also serves as a technical counter-screen to eliminate compounds that interfere with the HTRF reagents. Thus compounds that inhibit both IL-1β and TNFα levels are triaged for either being non-selective for inflammasome or interfering with the HTRF readout.

Test [1] has as its target T1, NLRP3 inflammasome (Homo sapiens, UniProt Q96P20). As to the kind of experiment: NLRP3 inflammasome activation assay in PBMCs, IL-1β release (ELISA / HTRF). The arrangement: were freshly isolated from human peripheral blood from healthy donors; StemCells Technologies; host or cells: primary human PBMCs, LPS-primed, nigericin-stimulated. Conditions: LPS primed. Here is the method: Some of the following assays were used to determine the inhibitory activity of the compounds on the NLRP3 inflammasome using a common inflammasome activation stimuli—nigericin.
as §1, §2, §3
Human frozen PBMCs were purchased from StemCells Technologies. Cells were rapidly thawed in 37° C. water bath and resuspended in fresh assay media consisting of RPMI 1640 Medium containing 1% sodium pyruvate, 10 mM HEPES, 2.5 g/L glucose and 55 μM 2-Mercaptoethanol. Cell density was adjusted to 8.1×10^5 cells/mL. Cells were primed by adding lipopolysaccharide (Invivogen Ultrapure lipopolysaccharide from E. coli, tlrl-3pelps) at a final concentration of 100 ng/mL in cell suspension. 37 μL of cell suspension with LPS was seeded per well of a 384 well plate and incubated for 3 hours at 37° C. and 5% CO2. After priming, PBMCs were preincubated with serially diluted test compounds with starting concentration of 40 μM followed by 2-fold dilution for a 20-point curve or vehicle (DMSO) for 30 min in assay media at 37° C. and 5% CO2. Cells were then stimulated with 10 μM nigericin (Invivogen, tlrl-nig-5) for 90 min at 37° C. and 5% CO2 to activate NLRP3 dependent inflammasome pathway and IL-1β release in cell culture supernatant. Cells were centrifuged at 1200 RPM for 1 min and 40 μL of supernatant was transferred into fresh plates and stored at −80° C. until IL-1β analysis.
16 μL of supernatant was added to white 384 well HTRF plates, followed by addition of 4 μL of HTRF cocktail in each well. Plates were quickly centrifuged, sealed and incubated overnight at room temperature. Next day, HTRF signal was read on a Pherastar and ratio of 665/620 was calculated based on manufacturer's protocol to obtain concentration of IL-1β in cell culture supernatant.

Test [2] concerns the target T1, NLRP3 inflammasome. The test is described as follows: THP-1 ASC-GFP speck assay. The arrangement: host or cells: THP-1 ASC-GFP cells, PMA-differentiated, LPS-primed, nigericin-stimulated. As to conditions: THP-1 ASC-GFP cells, PMA differentiated, LPS primed, 10 μM nigericin; read-out: THP1 ASC Speck IC50. The procedure, abridged: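 PMA-differentiated (500 ng/ml, overnight) THP-1 ASC-GFP cells primed with 1 μg/mL LPS for 3 h, preincubated 30 min with compound (top 40 μM, 2-fold, 20 points), then stimulated with 10 μM nigericin for 90 min at 37 °C. After fixation and Hoechst staining, imaging gave the percentage of cells bearing a GFP ASC speck.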

Where [3] appears, read: human PBMCs, read-out: PBMC CTG IC50.
Where [4] appears, read: 10 μM nigericin, read-out: PBMC IL-1β IC50.
Setting [5] is: PBMC, read-out: PBMC TNF α IC50.
Where [6] appears, read: 10 uM nigericin, read-out: PBMC IL-1 β IC50.

pIC50: −log10 of the molar value. Read-outs that look alike come from different tables or passages of the source.

T1 sequence (Q96P20 whole entry): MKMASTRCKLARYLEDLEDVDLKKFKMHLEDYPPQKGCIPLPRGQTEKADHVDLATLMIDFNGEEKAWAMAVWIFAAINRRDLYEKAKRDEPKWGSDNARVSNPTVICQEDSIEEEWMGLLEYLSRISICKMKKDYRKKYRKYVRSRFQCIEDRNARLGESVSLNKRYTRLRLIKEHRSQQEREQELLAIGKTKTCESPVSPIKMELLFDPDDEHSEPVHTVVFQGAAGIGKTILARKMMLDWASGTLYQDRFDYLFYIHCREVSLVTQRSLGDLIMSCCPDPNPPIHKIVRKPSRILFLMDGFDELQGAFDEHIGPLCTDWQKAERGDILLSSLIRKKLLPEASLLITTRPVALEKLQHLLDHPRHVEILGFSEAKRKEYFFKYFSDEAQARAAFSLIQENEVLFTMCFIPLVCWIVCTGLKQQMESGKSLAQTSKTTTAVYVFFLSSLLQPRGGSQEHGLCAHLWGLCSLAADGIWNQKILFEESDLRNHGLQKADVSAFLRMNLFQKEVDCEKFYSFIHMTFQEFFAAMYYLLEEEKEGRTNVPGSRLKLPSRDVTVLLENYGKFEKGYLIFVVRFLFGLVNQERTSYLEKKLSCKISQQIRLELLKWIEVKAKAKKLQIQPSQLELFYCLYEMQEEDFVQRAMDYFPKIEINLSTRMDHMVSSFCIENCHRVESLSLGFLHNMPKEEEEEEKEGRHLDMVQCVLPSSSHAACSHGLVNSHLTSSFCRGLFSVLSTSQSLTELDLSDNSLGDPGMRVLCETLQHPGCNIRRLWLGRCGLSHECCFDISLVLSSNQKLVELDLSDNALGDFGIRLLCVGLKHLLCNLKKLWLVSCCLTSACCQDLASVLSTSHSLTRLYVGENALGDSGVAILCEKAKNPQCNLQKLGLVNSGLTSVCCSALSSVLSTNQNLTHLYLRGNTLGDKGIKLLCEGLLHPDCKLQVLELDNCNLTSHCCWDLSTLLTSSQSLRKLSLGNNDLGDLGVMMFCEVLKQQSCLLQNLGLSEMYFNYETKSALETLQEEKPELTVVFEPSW

For the molecule `COC1COc2c(S(N)(=O)=NC(=O)Nc3c(C(C)C)cc(F)cc3C(C)C)cnn2C1` (single isomer, unassigned) [Example 23], the pIC50 in the test with PBMCs (setting [3]) is 7.41; with TNFα (PBMC), less than 5.00; on NLRP3 inflammasome [1] (setting [4]), 5.05.

For `CO[C@@H]1COc2c(S(=N)(=O)NC(=O)Nc3c4c(cc5c3CCC5)CCC4)cnn2C1` (stereo partly shown) [drawing 667], the negative-log IC50 (pIC50) in the test on PBMCs (Homo sapiens, PBMC) is 6.00 to 7.00; in the test on TNFα (setting [5]), less than 5.00; at NLRP3 inflammasome [1] (setting [6]), 6.00 to 7.00.

For `CN[C@@H]1COc2c(S(N)(=O)=NC(=O)Nc3c(C(C)C)cc(F)cc3C(C)C)cnn2C1` (mixture of isomers) [Example 16, (6S)—N′-((4-fluoro-2,6-diisopropylphenyl)carbamoyl)-6-(methylamino)-6,7-dihydro-5H-pyrazolo[5,1-b][1,3]oxazine-3-sulfonimidamide], the negative logarithm of the IC50 (pIC50) was 6.88 in the test on PBMCs (Homo sapiens, PBMC); less than 5.00 in the test with TNFα (PBMC); 6.57 at NLRP3 inflammasome [1] (setting [4]).

Take `NS(=O)(=NC(=O)Nc1c2c(c(F)c3c1CCC3)CCC2)c1cnn2c1OCCC2` (single isomer, unassigned) [drawing 669]: the pIC50 with PBMCs (Homo sapiens, PBMC) is greater than 7.00; in the test on TNFα (setting [5]), less than 5.00; at NLRP3 inflammasome [1] (setting [6]), greater than 7.00.

As to `CC(C)c1cc(F)cc(C(C)C)c1NC(=O)N=S(N)(=O)c1cnn2c1OCCC2` (single isomer, unassigned) [Example 8], the pIC50 with PBMCs (setting [3]) was 8.70; on NLRP3 inflammasome [2], 5.03; at NLRP3 inflammasome [1] (setting [4]), 6.00.

As to `NS(=O)(=NC(=O)Nc1c2c(c(F)c3c1CCC3)CCC2)c1cnn2c1OCCCC2` (stereo not shown), the negative logarithm of the IC50 (pIC50) was less than 5.00 in the test with PBMCs (Homo sapiens, PBMC); less than 5.00 in the test on TNFα (setting [5]); greater than 7.00 at NLRP3 inflammasome [1] (setting [6]).

Consider `CNC1COc2c(S(N)(=O)=NC(=O)Nc3c4c(c(F)c5c3CCC5)CCC4)cnn2C1` (single isomer, unassigned) [Example 40], for which the pIC50 is 8.52 in the test with PBMCs (setting [3]), 8.06 on NLRP3 inflammasome [2] and 8.31 at NLRP3 inflammasome [1] (setting [4]).

Regarding `NS(=O)(=NC(=O)Nc1c2c(cc3c1CCC3)CCC2)c1cnn2c1OCCC2` (single isomer, unassigned) [drawing 661], the negative-log IC50 (pIC50) in the test with PBMCs (Homo sapiens, PBMC) is greater than 7.00; with TNFα (setting [5]), less than 5.00; on NLRP3 inflammasome [1] (setting [6]) it was greater than 7.00.

With `CO[C@@H]1COc2c(S(=N)(=O)NC(=O)Nc3c4c(c(F)c5c3CCC5)CCC4)cnn2C1` (stereo partly shown) [drawing 666], the pIC50 in the test with PBMCs (Homo sapiens, PBMC) was greater than 7.00; in the test with TNFα (setting [5]), less than 5.00; at NLRP3 inflammasome [1] (setting [6]), greater than 7.00.

On to `N=S(=O)(NC(=O)Nc1c2c(cc3c1CCC3)CCC2)c1cnn2c1OCCC2` (single isomer, unassigned) [drawing 662], for which the results for the negative logarithm of the IC50 (pIC50) in the test with PBMCs (setting [3]), with TNFα (read-out: PBMC TNF α IC50) and at NLRP3 inflammasome [1] (setting [6]) were greater than 7.00, less than 5.00 and 5.00 to 6.00, respectively.

In the case of `N=S(=O)(NC(=O)Nc1c2c(c(F)c3c1CCC3)CCC2)c1cnn2c1OCCC2` (single isomer, unassigned) [drawing 670], the pIC50 was 6.00 to 7.00 in the test on PBMCs (setting [3]), less than 5.00 in the test on TNFα (read-out: PBMC TNF α IC50) and 5.00 to 6.00 at NLRP3 inflammasome [1] (setting [6]).

As to `NS(=O)(=NC(=O)Nc1c2c(c(C(=O)O)c3c1CCC3)CCC2)c1cnn2c1OCCC2` (racemic) [Example 37, 8-(3-(6,7-dihydro-5H-pyrazolo[5,1-b][1,3]oxazine-3-sulfonimidoyl)ureido)-1,2,3,5,6,7-hexahydro-s-indacene-4-carboxylic acid], the pIC50 was less than 5.00 in the test on PBMCs (Homo sapiens, PBMC); less than 4.70 at NLRP3 inflammasome [2]; less than 5.00 at NLRP3 inflammasome [1] (setting [4]).

`CN[C@@H]1COc2c(S(=N)(=O)NC(=O)Nc3c(C(C)C)cc(F)cc3C(C)C)cnn2C1` (single isomer, unassigned) [drawing 676]: the pIC50 in the test with TNFα (read-out: PBMC TNF α IC50) and on NLRP3 inflammasome [1] (setting [6]) was less than 5.00 in each case.

Take `NS(=O)(=NC(=O)Nc1c2c(cc3c1CCC3)CCC2)c1cnn2c1OCC(NCCF)C2` (single isomer, unassigned) [Example 36]: the pIC50 in the test on PBMCs (setting [3]) was 6.77; on NLRP3 inflammasome [2], 7.18; at NLRP3 inflammasome [1] (setting [4]) it was 7.30.

For `NS(=O)(=NC(=O)Nc1c2c(c(F)c3c1CCC3)CCC2)c1cnn2c1OCCC2` (single isomer, unassigned) [Example 22], the negative logarithm of the IC50 (pIC50) with PBMCs (setting [3]) was 7.18; on NLRP3 inflammasome [2] it was 6.82; at NLRP3 inflammasome [1] (setting [4]), 7.02.

For the molecule `COC1CN(C2COc3c(S(N)(=O)=NC(=O)Nc4c5c(cc6c4CCC6)CCC5)cnn3C2)C1` (single isomer, unassigned) [Example 38], the negative-log IC50 (pIC50) with PBMCs (setting [3]) was 5.94; at NLRP3 inflammasome [2], 5.82; at NLRP3 inflammasome [1] (setting [4]), 5.69.

Turning to `CNC1COc2c(S(N)(=O)=NC(=O)Nc3c4c(c(F)c5c3CCC5)CCC4)cnn2C1` (single isomer, unassigned) [Example 41], the pIC50 with PBMCs (setting [3]) was 5.88; on NLRP3 inflammasome [2], 6.37; at NLRP3 inflammasome [1] (setting [4]) it was 5.17.

On to `CO[C@@H]1COc2c(S(=N)(=O)NC(=O)Nc3c4c(cc5c3CCC5)CCC4)cnn2C1` (stereo partly shown) [drawing 650], for which the pIC50 in the test on PBMCs (setting [3]) and on NLRP3 inflammasome [1] (setting [6]) was greater than 7.00 each time.

Turning to `Cn1cc(S(N)(=O)=NC(=O)Nc2c3c(cc4c2CCC4)CCC3)cn1` (racemic) [Example 5, N′-((1,2,3,5,6,7-hexahydro-s-indacen-4-yl)carbamoyl)-1-methyl-1H-pyrazole-4-sulfonimidamide], the negative-log IC50 (pIC50) is 6.19 in the test on PBMCs (Homo sapiens, PBMC) and 5.99 at NLRP3 inflammasome [1] (setting [4]).

For the molecule `CNC1COc2c(S(N)(=O)=NC(=O)Nc3c(C(C)C)cc(F)cc3C(C)C)cnn2C1` (single isomer, unassigned) [Example 28], the pIC50 is less than 5.00 in the test with TNFα (read-out: PBMC TNFα IC50), 5.36 at NLRP3 inflammasome [2] and less than 5.00 at NLRP3 inflammasome [1] (setting [4]).

Take `NS(=O)(=NC(=O)Nc1c2c(cc3c1CCC3)CCC2)c1cnn2c1OCC(NCCF)C2` (single isomer, unassigned) [Example 35]: the negative-log IC50 (pIC50) in the test on PBMCs (Homo sapiens, PBMC) was 6.60; at NLRP3 inflammasome [1] (setting [4]), 6.74.

Take `NS(=O)(=NC(=O)Nc1c2c(cc3c1CCC3)CCC2)c1cnn(CC2CC2)c1` (racemic) [Example 10, 1-(cyclopropylmethyl)-N′-((1,2,3,5,6,7-hexahydro-s-indacen-4-yl)carbamoyl)-1H-pyrazole-4-sulfonimidamide]: the negative-log IC50 (pIC50) in the test on PBMCs (Homo sapiens, PBMC) is 6.44; on NLRP3 inflammasome [1] (setting [4]) it was 6.46.

(Values after US12234245B2, “Sulfonimidamide compounds as inhibitors of interleukin-1 activity” (Genentech, Inc., priority 2018, dated 2025).)
